From patent US9580444B2, “Polycyclic pyrazolinone derivative and herbicide comprising same as effective component thereof” (priority 2013, dated 2017)

Legend:
Assay type in all cases: in vivo
corn [1] = assay: Test Example-2: phytotoxicity by a soil treatment before weeds are generated under upland field conditions; settings: application amount 500 g a.i/ha, soil spray treatment before weeds are generated, about 21 days after the treatment, score 0 to 5
Summary of the method: (§1)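 Pre-emergence soil treatment: seeds sown in upland soil and covered with about 0.5 cm soil were sprayed the next day with diluted wettable powder or emulsifiable concentrate at a predetermined dosage. Weed control and corn injury were scored on a 0–5 scale about 21 days after treatment.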

corn [2] = assay: Test Example-4: phytotoxicity by a foliage treatment after weeds are generated under upland field conditions; settings: 500 g a.i/ha, foliage treatment after emergence, about 14 days after treatment, score 0-5
Summary of the method: (§2)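 Weeds sown in upland soil (65 cm^2 vat) and grown 14 days, then foliage-sprayed with diluted wettable powder or emulsifiable concentrate at a predetermined dosage in 4000 L water per hectare. Weed control and corn phytotoxicity were scored about 14 days after treatment on a 0–5 scale.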

[3] = tested on: Abutilon theophrasti (velvetleaf); assay: Test Example-5: herbicidal effect by a foliage treatment after weeds are generated under upland field conditions; settings: foliage treatment after emergence, about 14 days after treatment, score 0-5
Text: (§3) Using the formulation prepared according to the methods described above, the herbicidal effect of the bicyclic pyrazolinone derivative of the invention according to the methods shown in Test Examples below was examined. The herbicidal effect with respect to the test weeds or the phytotoxicity with respect to the test crops was examined according to the following criteria, and evaluated in six stage scores of 0 to 5. A vat having an area of 81 cm^2 and a depth of 3.5 cm was filled with upland soil, then, seeds of Ipomoea purpurea (tall morning glory), Amaranthus viridis (green amaranthus), Abutilon theophrasti (velvetleaf), Chenopodium album (common lambsquarters), and corn were seeded thereto, and the seeds were covered with soil of about 0.5 cm. While watering was suitably performed on there, the seeds were grown for 14 days. A wettable powder or an emulsifiable concentrate of the compound of the present invention prepared according to Formulation Example was diluted, and a spray treatment was uniformly performed on the foliage portion of the plant so as to be a predetermined dosage in the amount of water of 4000 L per hectare. The herbicidal effect with respect to the test weeds and the phytotoxicity with respect to corn about 14 days after the treatment were evaluated according to the evaluation criteria in six stages of 0 to 5 described above.

[4] = tested on: Amaranthus viridis (green amaranthus); assay: as above; settings: foliage treatment after emergence, about 14 days after treatment, score 0-5
Text: as §3

[5] = tested on: Ipomoea purpurea (tall morning glory); assay: as above; settings: foliage treatment after emergence, about 14 days after treatment, score 0-5
Text: as §3

[6] = tested on: Chenopodium album (common lambsquarters); assay: as above; settings: foliage treatment after emergence, about 14 days after treatment, score 0-5
Text: as §3

[7] = tested on: Abutilon theophrasti (velvetleaf); assay: Test Example-3: herbicidal effect by a treatment before weeds are generated under upland field conditions; settings: upland soil treatment before emergence, about 21 days after treatment, score 0-5
Text: as §3, with “Next day, a” for “While watering was suitably performed on there, the seeds were grown for 14 days. A”, “covered oil” for “foliage portion of the plant”, “dosage.” for “dosage in the amount of water of 4000 L per hectare.”, “21” for “14”

[8] = tested on: Amaranthus viridis (green amaranthus); assay: as above; settings: upland soil treatment before emergence, about 21 days after treatment, score 0-5
Text: as §3, with “Next day, a” for “While watering was suitably performed on there, the seeds were grown for 14 days. A”, “covered oil” for “foliage portion of the plant”, “dosage.” for “dosage in the amount of water of 4000 L per hectare.”, “21” for “14”

[9] = tested on: Ipomoea purpurea (tall morning glory); assay: as above; settings: upland soil treatment before emergence, about 21 days after treatment, score 0-5
Text: as §3, with “Next day, a” for “While watering was suitably performed on there, the seeds were grown for 14 days. A”, “covered oil” for “foliage portion of the plant”, “dosage.” for “dosage in the amount of water of 4000 L per hectare.”, “21” for “14”

[10] = tested on: Chenopodium album (common lambsquarters); assay: as above; settings: upland soil treatment before emergence, about 21 days after treatment, score 0-5
Text: as §3, with “Next day, a” for “While watering was suitably performed on there, the seeds were grown for 14 days. A”, “covered oil” for “foliage portion of the plant”, “dosage.” for “dosage in the amount of water of 4000 L per hectare.”, “21” for “14”

[11] = tested on: Eleocharis acicularis (needle spikerush); assay: Test Example-1: herbicidal effect by a treatment before weeds are generated under submerged conditions; settings: 500 g a.i/ha, pre-emergence treatment, about 15 days after treatment, score 0-5
Summary of the method: (§4)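 Paddy-soil cups were puddled, sown with the weeds and kept submerged. On the seeding day, diluted wettable powder or emulsifiable concentrate was applied as a submersing treatment at a predetermined dosage. Herbicidal effect was scored 0–5 about 15 days after treatment.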

[12] = tested on: other annual broad leaf weeds (Lindernia procumbens, Rotala indica, Elatine triandra); assay: as above; settings: 500 g a.i/ha, pre-emergence treatment, about 15 days after treatment, score 0-5
Summary of the method: as §4

[13] = tested on: Echinochloa oryzicola (barnyard grass); assay: as above; settings: 500 g a.i/ha, pre-emergence treatment, about 15 days after treatment, score 0-5
Summary of the method: as §4

[14] = tested on: Scirpus juncoides (bulrush); assay: as above; settings: 500 g a.i/ha, pre-emergence treatment, about 15 days after treatment, score 0-5
Summary of the method: as §4

[15] = tested on: Monochoria vaginalis (monochoria); assay: as above; settings: 500 g a.i/ha, pre-emergence treatment, about 15 days after treatment, score 0-5
Summary of the method: as §4

[16] = tested on: Cyperus difformis (smallflower umbrella plant); assay: as above; settings: 500 g a.i/ha, pre-emergence treatment, about 15 days after treatment, score 0-5
Summary of the method: as §4

corn [17] = assay: Test Example-3: phytotoxicity by a treatment before weeds are generated under upland field conditions; settings: upland soil treatment before emergence, about 21 days after treatment, score 0-5
Text: as §3, with “Next day, a” for “While watering was suitably performed on there, the seeds were grown for 14 days. A”, “covered oil” for “foliage portion of the plant”, “dosage.” for “dosage in the amount of water of 4000 L per hectare.”, “21” for “14”

corn [18] = assay: Test Example-5: phytotoxicity by a foliage treatment after weeds are generated under upland field conditions; settings: foliage treatment after emergence, about 14 days after treatment, score 0-5
Text: as §3

[19] = tested on: Abutilon theophrasti (velvetleaf); assay: Test Example-4: herbicidal effect by a foliage treatment after weeds are generated under upland field conditions; settings: 500 g a.i/ha, foliage treatment after emergence, about 14 days after treatment, score 0-5
Summary of the method: as §2

[20] = tested on: Amaranthus viridis (green amaranthus); assay: as above; settings: 500 g a.i/ha, foliage treatment after emergence, about 14 days after treatment, score 0-5
Summary of the method: as §2

[21] = tested on: Chenopodium album (common lambsquarters); assay: as above; settings: 500 g a.i/ha, foliage treatment after emergence, about 14 days after treatment, score 0-5
Summary of the method: as §2

[22] = tested on: Amaranthus viridis (green amaranthus); assay: Test Example-2: herbicidal effect by a soil treatment before weeds are generated under upland field conditions; settings: application amount 500 g a.i/ha, soil spray treatment before weeds are generated, about 21 days after the treatment, score 0 to 5
Summary of the method: as §1

[23] = tested on: Chenopodium album (common lambsquarters); assay: as above; settings: application amount 500 g a.i/ha, soil spray treatment before weeds are generated, about 21 days after the treatment, score 0 to 5
Summary of the method: as §1

Structure (SMILES)	Phytotoxicity Corn (corn [1])	Phytotoxicity Corn (corn [2])	Herbicidal effect Abutilon theophrasti ([3]; 12.5 g a.i/ha)	Herbicidal effect Abutilon theophrasti ([3]; 25 g a.i/ha)	Herbicidal effect Amaranthus viridis ([4]; 12.5 g a.i/ha)	Herbicidal effect Amaranthus viridis ([4]; 25 g a.i/ha)	Herbicidal effect Ipomoea purpurea ([5]; 12.5 g a.i/ha)	Herbicidal effect Ipomoea purpurea ([5]; 25 g a.i/ha)	Herbicidal effect Chenopodium album ([6]; 12.5 g a.i/ha)	Herbicidal effect Chenopodium album ([6]; 25 g a.i/ha)	Herbicidal effect Abutilon theophrast ([7]; 50 g a.i/ha)	Herbicidal effect Abutilon theophrast ([7]; 100 g a.i/ha)	Herbicidal effect Amaranthus viridis ([8]; 50 g a.i/ha)	Herbicidal effect Amaranthus viridis ([8]; 100 g a.i/ha)	Herbicidal effect Ipomoea purpurea ([9]; 50 g a.i/ha)	Herbicidal effect Ipomoea purpurea ([9]; 100 g a.i/ha)	Herbicidal effect Chenopodium album ([10]; 50 g a.i/ha)	Herbicidal effect Chenopodium album ([10]; 100 g a.i/ha)	Herbicidal effect Eleocharis acicularis [11]	Herbicidal effect Broadleaf weed [12]	also measured
C#CCOc1cc(-c2c(Cl)n3n(c2=O)CCCC3)c(F)cc1Cl [Example 1-238]	1 (Herbicidal effect/phytotoxicity was 10% to 30%)	3 (Herbicidal effect/phytotoxicity was 50% to 70%)	5 (Herbicidal effect/phytotoxicity was 90% or greater)	5 (Herbicidal effect/phytotoxicity was 90% or greater)	5 (Herbicidal effect/phytotoxicity was 90% or greater)	5 (Herbicidal effect/phytotoxicity was 90% or greater)	5 (Herbicidal effect/phytotoxicity was 90% or greater)	5 (Herbicidal effect/phytotoxicity was 90% or greater)	5 (Herbicidal effect/phytotoxicity was 90% or greater)	5 (Herbicidal effect/phytotoxicity was 90% or greater)	5 (Herbicidal effect/phytotoxicity was 90% or greater)	5 (Herbicidal effect/phytotoxicity was 90% or greater)	4 (Herbicidal effect/phytotoxicity was 70% to 90%)	5 (Herbicidal effect/phytotoxicity was 90% or greater)	5 (Herbicidal effect/phytotoxicity was 90% or greater)	5 (Herbicidal effect/phytotoxicity was 90% or greater)	5 (Herbicidal effect/phytotoxicity was 90% or greater)	5 (Herbicidal effect/phytotoxicity was 90% or greater)	5 (Herbicidal effect/phytotoxicity was 90% or greater)	5 (Herbicidal effect/phytotoxicity was 90% or greater)	Herbicidal effect Echinochloa oryzicola [13]: 5 (Herbicidal effect/phytotoxicity was 90% or greater); Herbicidal effect Scirpus juncoides [14]: 5 (Herbicidal effect/phytotoxicity was 90% or greater); Herbicidal effect Monochoria vaginalis [15]: 5 (Herbicidal effect/phytotoxicity was 90% or greater); Herbicidal effect Cyperus difformis [16]: 5 (Herbicidal effect/phytotoxicity was 90% or greater); Phytotoxicity Corn (corn [17]; 50 g a.i/ha): 0 (Herbicidal effect/phytotoxicity was 0% to 10%); Phytotoxicity Corn (corn [17]; 100 g a.i/ha): 0 (Herbicidal effect/phytotoxicity was 0% to 10%); Phytotoxicity Corn (corn [18]; 12.5 g a.i/ha): 0 (Herbicidal effect/phytotoxicity was 0% to 10%); Phytotoxicity Corn (corn [18]; 25 g a.i/ha): 0 (Herbicidal effect/phytotoxicity was 0% to 10%); Herbicidal effect Abutilon theophrast [19]: 5 (Herbicidal effect/phytotoxicity was 90% or greater); Herbicidal effect Amaranthus viridis [20]: 5 (Herbicidal effect/phytotoxicity was 90% or greater); Herbicidal effect Chenopodium album [21]: 5 (Herbicidal effect/phytotoxicity was 90% or greater); Herbicidal effect Amaranthus viridis [22]: 5 (Herbicidal effect/phytotoxicity was 90% or greater); Herbicidal effect Chenopodium album [23]: 5 (Herbicidal effect/phytotoxicity was 90% or greater)
C#CCOc1cc(-c2c(Cl)n3n(c2=O)CCOCC3)c(Cl)cc1Cl [Example 1-306]	1 (Herbicidal effect/phytotoxicity was 10% to 30%)	1 (Herbicidal effect/phytotoxicity was 10% to 30%)	5 (Herbicidal effect/phytotoxicity was 90% or greater)	5 (Herbicidal effect/phytotoxicity was 90% or greater)	5 (Herbicidal effect/phytotoxicity was 90% or greater)	5 (Herbicidal effect/phytotoxicity was 90% or greater)	5 (Herbicidal effect/phytotoxicity was 90% or greater)	5 (Herbicidal effect/phytotoxicity was 90% or greater)	5 (Herbicidal effect/phytotoxicity was 90% or greater)	5 (Herbicidal effect/phytotoxicity was 90% or greater)	3 (Herbicidal effect/phytotoxicity was 50% to 70%)	4 (Herbicidal effect/phytotoxicity was 70% to 90%)	5 (Herbicidal effect/phytotoxicity was 90% or greater)	5 (Herbicidal effect/phytotoxicity was 90% or greater)	4 (Herbicidal effect/phytotoxicity was 70% to 90%)	5 (Herbicidal effect/phytotoxicity was 90% or greater)	5 (Herbicidal effect/phytotoxicity was 90% or greater)	5 (Herbicidal effect/phytotoxicity was 90% or greater)	5 (Herbicidal effect/phytotoxicity was 90% or greater)	5 (Herbicidal effect/phytotoxicity was 90% or greater)	Herbicidal effect Echinochloa oryzicola [13]: 5 (Herbicidal effect/phytotoxicity was 90% or greater); Herbicidal effect Scirpus juncoides [14]: 5 (Herbicidal effect/phytotoxicity was 90% or greater); Herbicidal effect Monochoria vaginalis [15]: 5 (Herbicidal effect/phytotoxicity was 90% or greater); Herbicidal effect Cyperus difformis [16]: 5 (Herbicidal effect/phytotoxicity was 90% or greater); Phytotoxicity Corn (corn [17]; 50 g a.i/ha): 0 (Herbicidal effect/phytotoxicity was 0% to 10%); Phytotoxicity Corn (corn [17]; 100 g a.i/ha): 1 (Herbicidal effect/phytotoxicity was 10% to 30%); Phytotoxicity Corn (corn [18]; 12.5 g a.i/ha): 0 (Herbicidal effect/phytotoxicity was 0% to 10%); Phytotoxicity Corn (corn [18]; 25 g a.i/ha): 0 (Herbicidal effect/phytotoxicity was 0% to 10%); Herbicidal effect Abutilon theophrast [19]: 5 (Herbicidal effect/phytotoxicity was 90% or greater); Herbicidal effect Amaranthus viridis [20]: 5 (Herbicidal effect/phytotoxicity was 90% or greater); Herbicidal effect Chenopodium album [21]: 5 (Herbicidal effect/phytotoxicity was 90% or greater); Herbicidal effect Amaranthus viridis [22]: 5 (Herbicidal effect/phytotoxicity was 90% or greater); Herbicidal effect Chenopodium album [23]: 5 (Herbicidal effect/phytotoxicity was 90% or greater)
